In ChEMBL document CHEMBL3526091, “Pharmacokinetics, metabolism, and excretion of the glycogen synthase kinase-3 inhibitor LY2090314 in rats, dogs, and humans: a case study in rapid clearance by extensive metabolism with low circulating metabolite exposure” (Drug Metab Dispos, 2013):

Key:
Rattus norvegicus [1] = test: Total drug recovery in bile duct-cannulated Sprague-Dawley rat at 5 mg/kg, iv administered for 30 mins during 0 to 168 hrs time interval by radio analysis; type: ADME, organism-based; design: dose 5 mg/kg, dosed compound name [14C]LY2090314, route intravenous; settings: in vivo
[2] = Drug metabolism in Mdr1a knockout Sprague-Dawley rat bile at 5 mg/kg, iv administered for 30 mins; type: ADME, organism-based; design: dose 5 mg/kg, dosed compound name LY2090314, route intravenous; settings: in vivo, 0.5 h
[3] = Drug uptake in beagle […] blood at 5 mg/kg, iv administered for 30 mins; type: ADME, organism-based, Canis lupus familiaris; design: dose 5 mg/kg, dosed compound name [14C]LY2090314, route intravenous; settings: in vivo, 0.5 h
[4] = Drug recovery in Sprague-Dawley rat feces at 5 mg/kg, iv administered for 30 mins during 48 hrs time interval by radio analysis; type: ADME, organism-based; design: dose 5 mg/kg, dosed compound name [14C]LY2090314, route intravenous; settings: in vivo
[5] = Elimination half life in Sprague-Dawley rat at 5 mg/kg, iv administered for 30 mins; type: ADME, organism-based; design: dose 5 mg/kg, dosed compound name [14C]LY2090314, route intravenous; settings: in vivo, read-out: beta t1/2 (converted)
[6] = Drug recovery in Sprague-Dawley rat urine at 5 mg/kg, iv administered for 30 mins during 0 to 168 hrs time interval by radio analysis; type: ADME, organism-based; design: dose 5 mg/kg, dosed compound name [14C]LY2090314, route intravenous; settings: in vivo
Canis familiaris = test: Drug recovery in beagle dog cage at 5 mg/kg, iv administered for 30 mins during 0 to 168 hrs time interval by radio analysis; type: ADME, organism-based, Canis lupus familiaris; design: dose 5 mg/kg, dosed compound name [14C]LY2090314, route intravenous; settings: in vivo
Rattus norvegicus [7] = test: Total drug recovery in Sprague-Dawley rat at 5 mg/kg, iv administered for 30 mins during 0 to 168 hrs time interval by radio analysis; type: ADME, organism-based; design: dose 5 mg/kg, dosed compound name [14C]LY2090314, route intravenous; settings: in vivo
[8] = Tmax in beagle dog at 5 mg/kg, iv administered for 30 mins; type: ADME, organism-based, Canis lupus familiaris; design: dose 5 mg/kg, dosed compound name [14C]LY2090314, route intravenous; settings: in vivo
Rattus norvegicus [9] = test: AUC (0 to infinity) in Sprague-Dawley rat assessed as total radioactivity at 5 mg/kg, iv administered for 30 mins; type: ADME, organism-based, Plasma; design: dose 5 mg/kg, dosed compound name [14C]LY2090314, route intravenous, time infinity; settings: in vivo, 0.5 h
Rattus norvegicus [10] = test: Cmax in Sprague-Dawley rat assessed as total radioactivity at 5 mg/kg, iv administered for 30 mins; type: ADME, organism-based; design: dose 5 mg/kg, dosed compound name [14C]LY2090314, route intravenous; settings: in vivo, 0.5 h
Rattus norvegicus [11] = test: Tmax in Sprague-Dawley rat assessed as total radioactivity at 5 mg/kg, iv administered for 30 mins; type: ADME, organism-based; design: dose 5 mg/kg, dosed compound name [14C]LY2090314, route intravenous; settings: in vivo, 0.5 h
Rattus norvegicus [12] = test: Clearance in Sprague-Dawley rat assessed as total radioactivity at 5 mg/kg, iv administered for 30 mins; type: ADME, organism-based; design: dose 5 mg/kg, dosed compound name [14C]LY2090314, route intravenous; settings: in vivo, 0.5 h
Rattus norvegicus [13] = test: Volume of distribution at steady state in Sprague-Dawley rat assessed as total radioactivity at 5 mg/kg, iv administered for 30 mins; type: ADME, organism-based; design: dose 5 mg/kg, dosed compound name [14C]LY2090314, route intravenous; settings: in vivo, 0.5 h
Rattus norvegicus [14] = test: Elimination half life in Sprague-Dawley rat assessed as total radioactivity at 5 mg/kg, iv administered for 30 mins; type: ADME, organism-based; design: dose 5 mg/kg, dosed compound name [14C]LY2090314, route intravenous; settings: in vivo, 0.5 h
[15] = Drug recovery in beagle dog feces at 5 mg/kg, iv administered for 30 mins during 0 to 24 hrs time interval by radio analysis; type: ADME, organism-based, Canis lupus familiaris; design: dose 5 mg/kg, dosed compound name [14C]LY2090314, route intravenous; settings: in vivo
[16] = Drug recovery in beagle dog feces at 5 mg/kg, iv administered for 30 mins during 0 to 168 hrs time interval by radio analysis; type: ADME, organism-based, Canis lupus familiaris; design: dose 5 mg/kg, dosed compound name [14C]LY2090314, route intravenous; settings: in vivo
[17] = Drug recovery in beagle dog urine at 5 mg/kg, iv administered for 30 mins during 0 to 168 hrs time interval by radio analysis; type: ADME, organism-based, Canis lupus familiaris; design: dose 5 mg/kg, dosed compound name [14C]LY2090314, route intravenous; settings: in vivo
[18] = Drug recovery in bile duct-intact Sprague-Dawley rat assessed as radioactivity in feces during 0 to 24 hrs at 5 mg/kg, iv administered for 30 mins relative to dosed radioactivity; type: ADME, organism-based; design: dose 5 mg/kg, dosed compound name [14C]LY2090314, route intravenous; settings: in vivo
[19] = Drug recovery in bile duct-intact Sprague-Dawley rat assessed as radioactivity in bile during 0 to 24 hrs at 5 mg/kg, iv administered for 30 mins relative to dosed radioactivity; type: ADME, organism-based; design: dose 5 mg/kg, dosed compound name [14C]LY2090314, route intravenous; settings: in vivo
Plasma [20] = test: Drug metabolism in Mdr1a knockout Sprague-Dawley rat plasma at 5 mg/kg, iv administered for 30 mins; type: ADME, organism-based; design: dose 5 mg/kg, dosed compound name LY2090314, route intravenous; settings: in vivo, 0.5 h
Plasma [21] = test: Drug metabolism in Bcrp knockout Sprague-Dawley rat plasma at 5 mg/kg, iv administered for 30 mins; type: ADME, organism-based; design: dose 5 mg/kg, dosed compound name LY2090314, route intravenous; settings: in vivo, 0.5 h
[22] = Drug recovery in beagle dog urine at 5 mg/kg, iv administered for 30 mins during 0 to 12 hrs by radio analysis; type: ADME, organism-based, Canis lupus familiaris; design: dose 5 mg/kg, dosed compound name [14C]LY2090314, route intravenous; settings: in vivo
[23] = Cmax in cancer patient at 20 mg for 60 mins treated 1/1 cycle/day; type: ADME, organism-based; design: dose 20 mg, dosed compound name LY2090314; settings: human, in vivo
[24] = Cmax in cancer patient at 40 mg for 60 mins treated 1/1 cycle/day; type: ADME, organism-based; design: dose 40 mg, dosed compound name LY2090314; settings: human, in vivo
[25] = Cmax in cancer patient at 120 mg for 60 mins treated 1/1 cycle/day; type: ADME, organism-based; design: dose 120 mg, dosed compound name LY2090314; settings: human, in vivo
[26] = Cmax in cancer patient at 40 mg for 60 mins treated 1/8 cycle/day; type: ADME, organism-based; design: dose 40 mg, dosed compound name LY2090314; settings: human, in vivo

## O=C1NC(=O)C(c2cnc3ccccn23)=C1c1cn2c3c(cc(F)cc13)CN(C(=O)N1CCCCC1)CC2 [LY-2090314]
Rattus norvegicus [1]
  Radiolabel recovery: 94.9%
[2]
  Drug metabolism: metabolite_detected
[3]
  Compound recovery: 25.5%
[4]
  Radiolabel recovery: 65.8%
[5]
  half-life: 21.5 min
[6]
  Radiolabel recovery: 0.8%
Canis familiaris
  Radiolabel recovery: 3.22%
Rattus norvegicus [7]
  Radiolabel recovery: 97.7%
[8]
  Tmax: 30 min
Rattus norvegicus [9]
  AUC: 1.79 µg·h/mL
Rattus norvegicus [10]
  Cmax: 2.08 µg/mL
Rattus norvegicus [11]
  Tmax: 30 min
Rattus norvegicus [12]
  CL: 2.43 L/h/kg
Rattus norvegicus [13]
  Vdss: 4.489 L/kg
Rattus norvegicus [14]
  beta t1/2: 435 min
[15]
  Radiolabel recovery: 39.8%
[16]
  Radiolabel recovery: 69.2%
[17]
  Radiolabel recovery: 20.6%
[18]
  Radiolabel recovery: 2.4%
[19]
  Radiolabel recovery: 1.8%
Plasma [20]
  Drug metabolism: metabolite_not_detected
Plasma [21]
  Drug metabolism: metabolite_not_detected
[22]
  Radiolabel recovery: 0.35%
[23]
  Cmax: 0.246 µg/mL
[24]
  Cmax: 0.603 µg/mL
[25]
  Cmax: 1.7 µg/mL
[26]
  Cmax: 0.657 µg/mL
